# Data as given in ChEMBL document CHEMBL6120962, “New Mitochondria-Targeted Fisetin Derivative Compromises Mitophagy and Limits Survival of Drug-Induced Senescent Breast Cancer Cells” (J Med Chem, 2024).
# The source made the active and inactive calls. The calls are words filed in the database; no cut-off is given here.
# Columns and labels:
# ZR-75-30 [1] = experiment: Induction of oxidative stress in tamoxifen-induced senescent human ZR-75-30 cells assessed as increase in mitochondrial SOD2 level at 1 to 5 uM incubated for 24 hrs by MitoSOX red superoxide indicator based fluorescence analysis; type: functional, cell-based; details: dose 1-5 µM
# MCF-10F [2] = experiment: Induction of mitochondrial dysfunction in tamoxifen-induced senescent human MCF-10F cells assessed as decrease in ATP production at 5 uM incubated for 6 hrs by real-time analysis; type: functional, cell-based
# HCC1428 [3] = experiment: Induction of […] in human tamoxifen-induced senescent human HCC1428 cells at 1 to 5 uM incubated for 24 hrs by Annexin V-FITC staining based flow cytometric analysis; type: functional, cell-based; details: dose 1-5 µM
# [4] = biological target: T1, Receptor-interacting serine/threonine-protein kinase 1 (Homo sapiens) (UniProt Q13546); experiment: Induction of RIP1 phosphorylation in human HCC1428 cells at 1 to 5 uM incubated for 24 hrs by Western blot analysis; type: cell-based; details: dose 1-5 µM
# T1 sequence (whole entry): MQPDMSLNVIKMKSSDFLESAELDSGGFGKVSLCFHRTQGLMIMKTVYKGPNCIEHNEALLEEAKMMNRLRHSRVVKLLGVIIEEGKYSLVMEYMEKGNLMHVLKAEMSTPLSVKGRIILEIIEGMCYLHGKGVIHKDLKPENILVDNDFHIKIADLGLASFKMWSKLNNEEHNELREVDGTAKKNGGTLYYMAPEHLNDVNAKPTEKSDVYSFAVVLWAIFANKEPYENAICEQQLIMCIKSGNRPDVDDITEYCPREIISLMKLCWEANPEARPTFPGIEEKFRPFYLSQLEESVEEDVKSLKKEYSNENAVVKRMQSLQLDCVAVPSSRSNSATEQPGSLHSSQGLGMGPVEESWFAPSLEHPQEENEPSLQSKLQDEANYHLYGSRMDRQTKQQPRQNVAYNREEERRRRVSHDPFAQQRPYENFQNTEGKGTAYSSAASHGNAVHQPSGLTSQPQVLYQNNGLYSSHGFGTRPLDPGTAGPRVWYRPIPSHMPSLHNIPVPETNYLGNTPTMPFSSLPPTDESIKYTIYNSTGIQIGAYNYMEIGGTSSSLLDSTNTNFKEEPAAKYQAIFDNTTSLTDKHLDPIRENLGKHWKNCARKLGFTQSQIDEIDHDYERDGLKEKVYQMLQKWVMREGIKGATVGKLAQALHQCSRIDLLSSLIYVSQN
# ZR-75-30 [5] = experiment: Induction of oxidative stress in tamoxifen-induced senescent human ZR-75-30 cells assessed as increase in mitochondrial superoxide production at 1 to 5 uM incubated for 24 hrs by MitoSOX red superoxide indicator based fluorescence analysis; type: functional, cell-based; details: dose 1-5 µM
# HCC1428 [6] = experiment: Induction of apoptosis in tamoxifen-induced senescent human HCC1428 cells assessed as decrease in AKT level at 1 to 5 uM incubated for 24 hrs by Western blotting analysis; type: functional, cell-based; details: dose 1-5 µM
# MCF-10F [7] = experiment: Induction of mitochondrial dysfunction in human MCF-10F cells assessed as decrease in spare respiratory capacity at 5 uM incubated for 6 hrs by real time analysis; type: functional, cell-based
# HCC1500 = experiment: Induction of apoptosis in tamoxifen-induced senescent human HCC1500 cells assessed as decrease in HSP90 level incubated for 24 hrs by immunostaining based imaging cytometric analysis; type: functional, cell-based
# MCF-10F [8] = experiment: Induction of apoptosis in tamoxifen-induced senescent human MCF-10F cells assessed as decrease in Bcl2 level at 1 to 5 uM incubated for 24 hrs by Western blot analysis; type: functional, cell-based; details: dose 1-5 µM
# [9] = biological target: T2, Mixed lineage kinase domain-like protein (Homo sapiens) (UniProt Q8NB16); experiment: Induction of MLKL phosphorylation in human HCC1428 cells at 1 to 5 uM incubated for 24 hrs by Western blot analysis; type: cell-based; details: dose 1-5 µM
# T2 sequence (whole entry): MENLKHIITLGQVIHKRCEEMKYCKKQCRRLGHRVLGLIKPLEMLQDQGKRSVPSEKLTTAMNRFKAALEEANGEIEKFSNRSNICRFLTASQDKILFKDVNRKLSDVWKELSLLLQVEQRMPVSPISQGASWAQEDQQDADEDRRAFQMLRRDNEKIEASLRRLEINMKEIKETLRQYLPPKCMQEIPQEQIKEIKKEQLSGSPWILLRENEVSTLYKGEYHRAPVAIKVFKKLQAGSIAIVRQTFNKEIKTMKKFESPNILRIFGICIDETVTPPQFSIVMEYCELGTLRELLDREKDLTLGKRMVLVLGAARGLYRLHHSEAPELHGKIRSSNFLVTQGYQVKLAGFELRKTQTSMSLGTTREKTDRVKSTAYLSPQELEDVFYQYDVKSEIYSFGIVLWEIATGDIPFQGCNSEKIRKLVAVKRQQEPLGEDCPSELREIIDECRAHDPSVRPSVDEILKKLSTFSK
# HCC1428 [10] = experiment: Upregulation of BECN1 level in tamoxifen-induced senescent human HCC1428 cells at 1 to 5 uM by immunostaining based imaging cytometric analysis; type: functional, cell-based; details: dose 1-5 µM
# HCC1428 [11] = experiment: Induction of senescence in human HCC1428 cells assessed as […] in beta-galactosidase activity at 5 uM incubated for 24 hrs by immunostaining based imaging cytometric analysis; type: functional, cell-based
# HCC1428 [12] = experiment: Induction of mitochondrial dysfunction in human HCC1428 cells assessed as decrease in ATP production at 5 uM incubated for 6 hrs by real time analysis; type: functional, cell-based
# [13] = biological target: RAC-alpha serine/threonine-protein kinase (Homo sapiens) (UniProt P31749); experiment: Binding affinity to recombinant human AKT (14 to 276 residues) assessed as interaction by measuring decrease in chemiluminescence signal at 0.01 to 5 uM incubated overnight by dot-blot analysis; details: dose 0.01-5 µM
# CAMA-1 [14] = experiment: Anticancer activity against ER-positive human CAMA-1 cells assessed as effect on metabolic activity upto 10 uM incubated for 24 hrs by MTT assay; type: functional, cell-based
# CAMA-1 [15] = experiment: Induction of oxidative stress in tamoxifen-induced senescent human CAMA-1 cells assessed as increase in mitochondrial superoxide production at 1 to 5 uM incubated for 24 hrs by MitoSOX red superoxide indicator based fluorescence analysis; type: functional, cell-based; details: dose 1-5 µM
# Mitochondrial membrane [16] = experiment: Induction of mitochondrial membrane potential depolarization in human CAMA-1 cells at 1 uM incubated for 24 hrs by 7-AAD staining based flow cytometric analysis; type: cell membranes
# [17] = biological target: Receptor-interacting serine/threonine-protein kinase 3 (Homo sapiens) (UniProt Q9Y572); experiment: Induction of RIP3 phosphorylation in human HCC1428 cells at 1 to 5 uM incubated for 24 hrs by Western blot analysis; type: cell-based; details: dose 1-5 µM
# Mitochondrial membrane [18] = experiment: Induction of mitochondrial membrane potential depolarization in human HCC1428 cells assessed as increase in fraction of depolarized dead cells at 5 uM incubated for 24 hrs by 7-AAD staining based flow cytometric analysis; type: cell membranes
# HCC1428 [19] = experiment: Induction of apoptosis in tamoxifen-induced senescent human HCC1428 cells assessed as increase in caspase 3 level incubated for 24 hrs by immunostaining based imaging cytometric analysis; type: functional, cell-based
# HCC1428 [20] = experiment: Induction of autophagy in tamoxifen-induced senescent human HCC1428 cells assessed as increase in VPS34 level at 1 to 5 uM by immunostaining based imaging cytometric analysis; type: functional, cell-based; details: dose 1-5 µM
# HCC1428 [21] = experiment: Induction of autophagosome formation in tamoxifen-induced senescent human HCC1428 cells assessed as increase in ubiquitin level at 1 to 5 uM by immunostaining based imaging cytometric analysis; type: functional, cell-based; details: dose 1-5 µM
# Chain of Receptor-interacting serine/threonine-protein kinase 3 (Homo sapiens) (Q9Y572 whole entry, looked up): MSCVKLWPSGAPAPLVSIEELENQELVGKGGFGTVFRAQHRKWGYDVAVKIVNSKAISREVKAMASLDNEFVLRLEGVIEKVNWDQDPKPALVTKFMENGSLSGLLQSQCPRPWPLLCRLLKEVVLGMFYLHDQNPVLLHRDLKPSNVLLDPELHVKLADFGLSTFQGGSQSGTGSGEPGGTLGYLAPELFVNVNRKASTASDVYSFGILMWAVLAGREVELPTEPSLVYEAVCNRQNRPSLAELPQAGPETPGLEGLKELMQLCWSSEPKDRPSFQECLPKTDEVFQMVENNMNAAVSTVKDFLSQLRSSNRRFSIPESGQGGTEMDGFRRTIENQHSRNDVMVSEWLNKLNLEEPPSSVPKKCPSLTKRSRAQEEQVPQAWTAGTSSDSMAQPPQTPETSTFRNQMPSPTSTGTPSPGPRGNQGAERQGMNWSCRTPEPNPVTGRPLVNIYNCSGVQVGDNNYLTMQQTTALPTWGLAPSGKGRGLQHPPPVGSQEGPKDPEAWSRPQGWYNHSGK
# Chain of RAC-alpha serine/threonine-protein kinase (Homo sapiens) (P31749 whole entry, the tested form may be a part): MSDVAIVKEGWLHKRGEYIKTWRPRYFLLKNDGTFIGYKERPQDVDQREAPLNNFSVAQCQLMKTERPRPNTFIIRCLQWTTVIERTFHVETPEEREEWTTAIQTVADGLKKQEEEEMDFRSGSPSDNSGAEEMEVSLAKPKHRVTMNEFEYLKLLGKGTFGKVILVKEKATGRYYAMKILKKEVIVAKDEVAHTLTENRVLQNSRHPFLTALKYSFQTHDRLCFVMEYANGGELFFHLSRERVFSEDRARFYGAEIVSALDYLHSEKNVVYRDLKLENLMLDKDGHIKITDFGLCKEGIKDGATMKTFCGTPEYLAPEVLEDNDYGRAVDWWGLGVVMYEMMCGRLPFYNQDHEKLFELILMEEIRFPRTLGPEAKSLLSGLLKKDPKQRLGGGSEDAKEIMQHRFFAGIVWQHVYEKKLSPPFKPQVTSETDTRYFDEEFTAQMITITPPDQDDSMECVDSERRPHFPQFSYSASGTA
smiles,measurement,setting,value
CC(=O)Oc1ccc2c(=O)c(OCCCC[P+](c3ccccc3)(c3ccccc3)c3ccccc3)c(-c3ccc4c(c3)OC(c3ccccc3)(c3ccccc3)O4)oc2c1.[I-],Activity,ZR-75-30 [1],Active
same,Activity,MCF-10F [2],inactive
same,Activity,HCC1428 [3],Active
same,Activity,[4],inactive
same,Activity,ZR-75-30 [5],Active
same,Activity,HCC1428 [6],Active
same,Activity,MCF-10F [7],inactive
same,Activity,HCC1500,Active
same,Activity,MCF-10F [8],inactive
same,Activity,[9],inactive
same,Activity,HCC1428 [10],inactive
same,Activity,HCC1428 [11],Active; Most Pronounced Effect Observed
same,Activity,HCC1428 [12],Active
same,Activity,[13],Active
same,Activity,CAMA-1 [14],Active
same,Activity,CAMA-1 [15],Active
same,Activity,Mitochondrial membrane [16],Active
same,Activity,[17],inactive
same,Activity,Mitochondrial membrane [18],Active
same,Activity,HCC1428 [19],Active
same,Activity,HCC1428 [20],Active
same,Activity,HCC1428 [21],inactive
